By fold induction is commonly meant the signal under treatment as a multiple of the control signal. A low value points to a weak induction.

Molecules are shown by their SMILES.

For the assay, the system named is miR-124. Put plainly: Up-regulation of miR-124 in CD3/CD28 antibody-activated T cells (SYBR green quantitative PCR). In kind it is cell-based. The settings on record: T-cell, 72 h; activated human T cells, 1 μM compound, 3 days, relative to DMSO, U6 internal reference. Here is the method:
The effect of the compound on miR-124 expression levels was detected in CD3/CD28 antibody-activated T cells. After the activated T cells were treated with the compound, the total cellular RNA was extracted, the cDNA obtained from reverse transcription was used as a template, and quantification was performed by an SYBR green fluorescence quantitative PCR method using a specific miR-124 primer.
Isolation of T cells: Purchased human peripheral blood mononuclear cells (PBMCs) were counted, centrifuged, and washed once with a separation buffer (PBS, pH 7.4, containing 0.5% BSA and 2 mM EDTA), and the supernatant was discarded. The components were added in an amount of 40 μL of a buffer and 10 μL of pan T Cell Biotin-Antibody Cocktail per 1×10^7 cells, and the pellet was resuspended. The resulting suspension was mixed and incubated in a refrigerator at 4° C. for 5 min. After the incubation was completed, the components were added in an amount of 30 μL of a buffer and 20 μL of Pan T Cell MicroBeads Cocktail per 1×10^7 cells, and the resulting suspension was mixed and incubated in a refrigerator at 4° C. for 10 min. The separation column (LS column) was rinsed with 3 mL of a cell separation buffer in advance, loaded with the above cell suspension, and then repeatedly washed 3 times with 1 mL of the cell separation buffer. The effluent cell fluid was collected in a 15 mL centrifuge tube, thus giving the enriched T cells. The cells were counted and added at a density of 1×10^6 cells/mL to an RPMI1640 medium (complete medium) containing 10% FBS and 40) U/mL IL-2, and the resulting mixture was kept on ice for later use.
Activation of T cells: The corresponding Dynabead Human T-Activator CD3/CD28 for T Cell Expansion and Activation were added to a 1.5 mL centrifuge tube in an amount of 25 μL of the activated magnetic beads per 1×10^6 cells, which should be shaken on a shaker for about 30 s before aspiration. In the centrifuge tube, at a volume ratio of greater than 1:1, the activated magnetic beads were washed 3 times with a medium, and all the washing liquid was removed after the last washing. A complete medium with a volume equal to the starting volume was added to resuspend the activated magnetic beads. The washed activated magnetic beads were added to the cell resuspension, and the resulting mixture was well mixed. The cells were added to a six-well plate at 3 mL/well and incubated in a cell incubator at 37° C. with 5% CO2 for 2 days.
Compound treatment: A 20 mM compound stock solution was diluted to 200 μM with DMSO, and then diluted 4-fold to 50 μM (50)×) with a complete medium. The resulting mixture was well mixed for later use. 4-fold diluted DMSO (25% DMSO) was added to negative control wells. T cells were activated for two days and pipetted uniformly. The 1.5 mL centrifuge tube was mounted on a magnetic rack, and the activated magnetic beads were removed. The cell suspension was collected, and the cells were counted and then centrifuged at 300×g for 10 min to discard the supernatant. The cells were then resuspended to 1.02×10^6 cells/mL, and 980 μL of the cell suspension and 20 μL of the 50× compound were added to each 24-well plate, with the final concentration of the compound being 1 μM. The cells were placed in a cell incubator at 37° C. with 5% CO2 for another 3 days.
RNA extraction: T cells were collected by centrifugation at 1500 rpm for 3 min, washed once with PBS, and centrifuged again to discard the supernatant. The total cellular RNA was extracted using a microRNA extraction kit according to the package insert. 700 μL of a Trizol cell lysis buffer was added to the cell pellet, and the resulting mixture was pipetted uniformly and left at room temperature for 5 min. 140 μL of chloroform was added, and the resulting mixture was well mixed with shaking and left to stand at room temperature for 3 min. The chloroform-cell lysis buffer mixture was centrifuged at 12000×g and 4° C. for 15 min. […]
In the case of `Cc1ccc2ccc(Nc3ccc4c(c3)OC(F)(F)O4)nc2c1Cl` [Compound 15, 8-Chloro-N-(2,2-difluorobenzo[d][1,3]dioxol-5-yl)-7-methylquinolin-2-amine], the fold induction at 1 µM was 5.7.

In turn, `Clc1cccc2ccc(Nc3ccc4c(c3)CCO4)nc12` [Compound 3, 8-Chloro-N-(2,3-dihydrobenzofuran-5-yl)quinolin-2-amine] had a fold induction at 1 µM of 5.2.

For `CC1(C)Cc2cc(Nc3ccc4cccc(Cl)c4n3)ccc2O1` [Compound 13, 8-Chloro-N-(2,2-dimethyl-2,3-dihydrobenzofuran-5-yl)quinolin-2-amine], the fold induction at 1 µM was 2.8.

As for `COc1ccc2ccc(Nc3ccc4c(c3)OC(F)(F)O4)nc2c1Cl` [Compound 16, 8-Chloro-N-(2,2-difluorobenzo[d][1,3]dioxol-5-yl)-7-methoxyquinolin-2-amine], the fold induction at 1 µM was determined as 3.9.

Regarding `[2H]C1([2H])Oc2ccc(Nc3ccc4cccc(Cl)c4n3)cc2O1` [Compound 11, N-(Benzo[d][1,3]dioxol-5-yl-2,2-d2)-8-chloroquinolin-2-amine], the fold induction at 1 µM was found to be 2.4.

As for `Clc1cccc2ccc(Nc3ccc4c(c3)CCC4)nc12` [Compound 4, 8-Chloro-N-(2,3-dihydro-1H-inden-5-yl)quinolin-2-amine], the fold induction at 1 µM is 5.4.

Compound `N#Cc1cc(Cl)c2nc(Nc3ccc4c(c3)OC(F)(F)O4)ccc2c1` [Compound 26, 8-Chloro-2-((2,2-difluorobenzo[d][1,3]dioxol-5-yl)amino)quinoline-6-carbonitrile] showed a fold induction at 1 µM of 2.4.

Consider `Cc1cc(Cl)c2nc(Nc3ccc4c(c3)OC(F)(F)O4)ccc2c1` [Compound 18, 8-Chloro-N-(2,2-difluorobenzo[d][1,3]dioxol-5-yl)-6-methylquinolin-2-amine], for which the fold induction at 1 µM was found to be 2.7.

`FC1(F)Oc2ccc(Nc3ccc4cccc(Cl)c4n3)cc2OC1(F)F` [Compound 8, 8-Chloro-N-(2,2,3,3-tetrafluoro-2,3-dihydrobenzo[b][1,4]dioxin-6-yl)quinolin-2-amine] yielded a fold induction at 1 µM of 5.4.

In turn, `FC1(F)Oc2ccc(Nc3ccc4c(Cl)ccc(Cl)c4n3)cc2O1` [Compound 25, 5,8-Dichloro-N-(2,2-difluorobenzo[d][1,3]dioxol-5-yl)quinolin-2-amine] came in with a fold induction at 1 µM of 6.7.

Take `Clc1cccc2ccc(Nc3ccc4c(c3)CCCC4)nc12` [Compound 7, 8-Chloro-N-(5,6,7,8-tetrahydronaphthalen-2-yl)quinolin-2-amine]: the fold induction at 1 µM stood at 5.2.

With `Cc1ccc(Cl)c2nc(Nc3ccc4c(c3)OC(F)(F)O4)ccc12` [Compound 23, 8-Chloro-N-(2,2-difluorobenzo[d][1,3]dioxol-5-yl)-5-methylquinolin-2-amine], the fold induction at 1 µM turned out to be 2.3.

On to `CC1(C)Oc2ccc(Nc3ccc4cccc(Cl)c4n3)cc2O1` [Compound 12, 8-Chloro-N-(2,2-dimethylbenzo[d][1,3]dioxol-5-yl)quinolin-2-amine], for which the fold induction at 1 µM stood at 1.8.

The compound `O=C(O)[C@H]1O[C@@H](N(c2ccc3c(c2)OCO3)c2ccc3cccc(Cl)c3n2)[C@H](O)[C@@H](O)[C@@H]1O` [Compound 21, (2S,3S,4S,5R,6R)-6-(Benzo[d][1,3]dioxol-5-yl(8-chloroquinolin-2-yl)amino)-3,4,5-trihydroxytetrahydro-2H-pyran-2-carboxylic acid] displayed a fold induction at 1 µM of 1.9.

Turning to `Clc1cccc2ccc(Nc3ccc4c(c3)OCO4)nc12` [Compound 10, N-(Benzo[d][1,3]dioxol-5-yl)-8-chloroquinolin-2-amine], the fold induction at 1 µM was determined as 2.1.

The compound `CC(=O)N1CCc2cc(Nc3ccc4cccc(Cl)c4n3)ccc21` [Compound 5, 1-(5-((8-Chloroquinolin-2-yl)amino)indolin-1-yl)ethan-1-one] came in with a fold induction at 1 µM of 1.4.

Compound `FC1(F)Oc2ccc(Nc3ccc4c5c(cc(Cl)c4n3)CCC5)cc2O1` [Compound 14, 5-Chloro-N-(2,2-difluorobenzo[d][1,3]dioxol-5-yl)-8,9-dihydro-7H-cyclopenta[f]quinolin-3-amine] had a fold induction at 1 µM of 1.5.

`FC1(F)Oc2ccc(Nc3ccc4ccc(Cl)c(Cl)c4n3)cc2O1` [Compound 17, 7,8-Dichloro-N-(2,2-difluorobenzo[d][1,3]dioxol-5-yl)quinolin-2-amine] gave a fold induction at 1 µM of 5.9.

Take `Clc1cccc2ccc(Nc3ccc4c(c3)OCCO4)nc12` [Compound 6, 8-Chloro-N-(2,3-dihydrobenzo[b][1,4]dioxin-6-yl)quinolin-2-amine]: the fold induction at 1 µM was 2.7.

As for `FC1(F)Oc2ccc(Nc3ccc4cc(Cl)cc(Cl)c4n3)cc2O1` [Compound 20, 6,8-Dichloro-N-(2,2-difluorobenzo[d][1,3]dioxol-5-yl)quinolin-2-amine], the fold induction at 1 µM was 5.

`COc1ccc(Cl)c2nc(Nc3ccc4c(c3)OC(F)(F)O4)ccc12` [Compound 24, 8-Chloro-N-(2,2-difluorobenzo[d][1,3]dioxol-5-yl)-5-methoxyquinolin-2-amine] displayed a fold induction at 1 µM of 3.

The compound `Clc1cccc2ccc(Nc3cnc4c(c3)OCO4)nc12` [Compound 9, N-(8-Chloroquinolin-2-yl)-[1,3]dioxolo[4,5-b]pyridin-6-amine] had a fold induction at 1 µM of 2.4.

For `O=C(O)[C@H]1O[C@@H](N(c2ccc3c(c2)OCCO3)c2ccc3cccc(Cl)c3n2)[C@H](O)[C@@H](O)[C@@H]1O` [Compound 22, (2S,3S,4S,5R,6R)-6-((8-Chloroquinolin-2-yl)(2,3-dihydrobenzo[b][1,4]dioxin-6-yl)amino)-3,4,5-trihydroxytetrahydro-2H-pyran-2-carboxylic acid], the fold induction at 1 µM was determined as 1.7.

(Values after patent US20240327388A1, “QUINOLINAMINE COMPOUND, PREPARATION METHOD THEREFOR AND APPLICATION THEREOF IN PHARMACEUTICALS” (JIANGSU HENGRUI PHARMACEUTICALS CO., LTD., priority 2021, published 2024).)
